The values that follow come from patent US9056891B2, “Synthetic peptide inhibitors of Wnt pathway” (The United States of America, as represented by the …, priority 2010, dated 2015).

The test system of one assay is 4T1 cells. The assay can be described thus: Toxicity (growth inhibition) for 4T1 cells. It is filed as cell-based, mouse. The procedure:
To identify a mouse model for preclinical development of compounds, mouse cell lines were tested for (1) growth inhibition by the compounds and (2) the levels of constitutive Wnt signaling TCF-reporter activity using transfection of cell with TCF/LEF-responsive firefly luciferase construct. The data further confirmed that sensitivity to compounds correlated well with the levels of canonical Wnt signaling.
Based on the data, mouse breast cancer cell line 4T1 was selected for in vivo testing.
(§1) Further optimization and testing of inhibitors was performed using this cell line. Table 5 presents toxicity data for select inhibitors for 4T1 cells and human colon cancer cell line SW-480, wherein GI50 is the concentration providing 50% growth inhibition and TGI is the total growth inhibition.

The test system of assay [1] is HeLa, U3A, RKO, HCT-116, and HT-29 cells. As to the kind of experiment: MTT cell number versus concentration (FIG. 1). The format is cell-based. As to conditions: HCT-116, HT-29. The method, then: (§2) The ability of CT-HC-1 to inhibit growth and to kill cancer cells at different concentrations was further investigated in HeLa, U3A, RKO, HCT-116, and HT-29 cells. The cells were stained with Promega Non-Radioactive Cell Proliferation Assay Kit (MTT) according to the manufacture's protocol. The absorbance of the wells was determined at 544 nm by a FLUOstar/POLARstar Galaxy (BMG Lab Technologies GmbH) Microplate Reader. The assays were performed on control (C) and test (T) cells. Untreated cells were used as a control. Cellular responses were calculated from the data using the following formula: 100×[(T−T0)/(C−T0)] for T>T0 and 100×[(T−T0)/T0] for T<T0. T0 corresponds to cell density at the time of drug addition.

In assay [2] the test system is Wnt pathway (TOPflash reporter transcription). The assay can be described thus: TOPflash dual luciferase reporter assay in primary metanephric mesenchyme (MM) cells. It is filed as cell-based. As to conditions: 10 μM, 30 min pre-treatment, 24 hours. The procedure: Primary metanephric mesenchyme (MM) cells were transfected with the Amaxa Nucleofector 96-well Shuttle System (Lonza Group Ltd, Basel, Switzerland). Briefly, 1×10^6 cells per transfection were resuspended in 20 μl of 96-well Nucleofector solutions. TOPflash luciferase plasmid (1 μg) and 0.1 μg pRL-TK-renilla plasmids (Promega, Madison, Wis., USA) were mixed with cell suspensions and transferred to the well of a 96-well Nucleocuvette module. Nucleofections were performed according to manufacturer's instructions using program DN-100.
MM cells were pre-treated with or without CT-HC-1 (10 μM) for 30 min, and then exposed to GSK3 inhibitor BIO (500 nM) or Wnt3a conditioned medium (50%) (Wnt3aCM as described in Willert et al., Nature, 423: 448-452 (2003)) for 24 hours. Cells were lysed and assayed for reporter activity using a Dual luciferase assay system (Promega) and a Monolight 3010 Luminometer (Pharmagen, San Diego, Calif., USA).

The next assay deals with HT-29 cells. It is filed as cell-based. Conditions: 48 h. The procedure:
(§3) HeLa, U3A, RKO, HCT-116, and HT-29 cells were exposed to the CT-HC-1, CT-HC-3, CT-HC-5, and CT-HC-8 inhibitors of Example 1 for 48 hours in medium containing 1% bovine fetal serum, and the resulting cell number was evaluated using a MTT assay. Each of these cell lines is relevant to the evaluation of Wnt signaling. Cervical carcinoma HeLa cells overexpress β-catenin (see, e.g., Lee et al., Int. J. Cancer, 124(2): 287-297 (2009); and Lee et al., Gynecol. Oncol., 109(2): 270-274 (2008)). β-catenin is activated in colon carcinoma RKO due to mutation in CDX2 (see, e.g., Dang et al., Oncogene, 20(35): 4884-4890 (2001)). Colon adenocarcinoma HCT116 has elevated mutated β-catenin; however, it was found in the past to be resistant to down regulation of β-catenin (see, e.g., Chan et al., Proc. Natl. Acad. Sci. USA, 99(12): 8265-8270 (2002); and Handeli et al., Mol. Cancer Ther., 7(3): 521-529 (2008)). Colon carcinoma HT-29 has truncated adenomatous polyposis coli (APC) protein, which is a common cause of canonical Wnt pathway activation in colon malignancies. Fibrosarcoma U3A cells are STAT1-negative and have uncharacterized status of Wnt pathway.
as §2

The subject of the next assay is HeLa cells. The format is cell-based. As to conditions: 48 h. The procedure: as §3, §2
The subject of the next assay is U3A cells. The format is cell-based. As to conditions: 48 h. The method, then:
as §3, §2

In another assay the test system is RKO cells. The format is cell-based. As to conditions: 48 h. The method, then: as §3, §2
A further assay has as its system β-catenin. As to the kind of experiment: Levels of total β-catenin in MM cells. It is filed as cell-based. The method, then:
Cells were also evaluated for levels of total β-catenin. In these studies, β-catenin was degraded within 3 hours of treatment with CT-HC-1.

For a further assay, the system named is HCT-116 cells. It is filed as cell-based, human. As to conditions: 48 h. The procedure:
as §3, §2

In assay [3] the test system is Lim-1, E-cadherin, Axin-2 expression. As to the kind of experiment: Semi-quantitative RT-PCR of marker expression in MM cells. It is filed as cell-based. An excerpt:
(§4) To determine if the loss of β-catenin affects differentiation, MM cells were co-cultivated with inductor, embryonic spinal cord, and treated with CT-HC-1. In these cultures, tubule formation was unaffected. This finding was supported by semi-quantitative RT-PCR analysis of BIO-induced MM cells in which levels of epithelial markers Lim-1 and E-cadherin were unaltered with CT-HC-1 treatment. […] This observation is consistent with reports describing an antagonistic relationship between canonical and non-canonical Wnt mechanisms (see, e.g., Park et al., Development, 132: 2533-2539 (2007); and Schmidt-Ott et al., Development, 132: 3177-3190 (2007).

Assay [4] has as its system RKO, HT-29, HCT-116, SW-480, and SW-620 cells. As to the kind of experiment: Cell viability of colon cancer cells (FIGS. 2A-C). Conditions: increasing concentrations, HT-29, HCT-116, SW-480, SW-620. The format is cell-based. The method, then: The concentration (μM) of the peptide inhibitor is indicated on the x-axis and the percent viability is indicated on the y-axis.
A similar experiment was performed using RKO, HT-29, HCT-116, SW-480, and SW-620 cells. Colorectal adenocarcinoma SW-480 and SW-620 cells have truncated APC protein, which—as discussed above—is a common cause of canonical Wnt pathway activation in colon malignancies.

The test system of assay [5] is MM cells (tubule formation). The assay can be described thus: MM cell differentiation, co-cultivation with embryonic spinal cord inductor. The format is cell-based. Conditions: MM cells co-cultivated with embryonic spinal cord.
From the text: as §4

For a further assay, the system named is SW480 cells. As to the kind of experiment: Toxicity (growth inhibition) for SW-480 cells. The format is cell-based, human. Details: unit not given here. The procedure:
as §1

For a further assay, the target named is T1, GFP-tagged beta-catenin (Homo sapiens, UniProt P35222).
T1 construct: made in house; host or cells: HEK293 cells (unpurified lysate)
T1 sequence (P35222 1-781): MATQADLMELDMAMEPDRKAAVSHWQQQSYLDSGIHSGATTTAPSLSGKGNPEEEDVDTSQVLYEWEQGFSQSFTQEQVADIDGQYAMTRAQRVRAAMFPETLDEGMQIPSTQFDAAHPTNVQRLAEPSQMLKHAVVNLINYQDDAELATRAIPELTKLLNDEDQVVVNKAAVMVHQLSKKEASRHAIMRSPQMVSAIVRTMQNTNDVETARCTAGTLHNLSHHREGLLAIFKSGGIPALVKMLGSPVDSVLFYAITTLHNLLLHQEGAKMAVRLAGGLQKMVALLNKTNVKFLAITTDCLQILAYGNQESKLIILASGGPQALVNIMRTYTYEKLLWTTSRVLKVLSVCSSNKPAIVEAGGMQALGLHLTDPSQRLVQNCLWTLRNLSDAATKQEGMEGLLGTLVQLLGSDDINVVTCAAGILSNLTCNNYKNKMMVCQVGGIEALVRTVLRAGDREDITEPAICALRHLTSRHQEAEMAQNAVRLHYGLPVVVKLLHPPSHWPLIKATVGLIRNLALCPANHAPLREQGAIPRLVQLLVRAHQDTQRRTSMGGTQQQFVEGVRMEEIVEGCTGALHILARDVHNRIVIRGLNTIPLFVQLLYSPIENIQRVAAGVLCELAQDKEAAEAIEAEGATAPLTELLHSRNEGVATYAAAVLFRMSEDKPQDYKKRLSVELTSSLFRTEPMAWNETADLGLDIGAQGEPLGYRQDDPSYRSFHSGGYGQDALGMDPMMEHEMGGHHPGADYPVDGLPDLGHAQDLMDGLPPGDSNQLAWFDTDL
As to the kind of experiment: Microscale thermophoresis of GFP-tagged beta-catenin. The format is binding. As to conditions: HEK293 lysate, membrane-mimicking bicelles, Hill fit. The procedure:
Briefly, beta-catenin was overexpressed as a GFP-fusion in HEK293 cells. The cells were lysed with ultrasound, and the resulting lysate was mixed with increasing concentrations of CT-HC-5 in the presence of membrane-mimicking bicelles. Thermophoretic mobility was measured in standard capillaries on Monolith NT.115 (NanoTemper Technologies).

Assay [6] concerns 4T1 mouse breast cancer cells. As to the kind of experiment: Colony formation by 4T1 cells. As to conditions: 5 μM and 10 μM. The format is cell-based. An excerpt: The activity of compounds in inhibiting colony formation by 4T1 cells was also investigated, which test provides a prediction for compound's potency in vivo.
[7] abbreviates: cells exposed only to peptide, no inductive ligand.

Where a SMILES comes first, the peptide text is derived from it. [ ]: non-standard residue; d: D form. The star is where a group is joined. Palmitoyl = CCCCCCCCCCCCCCCC(=O)* Some results are limits rather than exact numbers.

As for `CCCCCCCCCCCCCCCC(=O)NCCCC[C@H](N)C(=O)N[C@@H](Cc1ccc(O)cc1)C(=O)N[C@@H](CCCCN)C(=O)N[C@@H](CCCCN)C(=O)N[C@@H](CCCNC(=N)N)C(=O)N[C@@H](CC(C)C)C(=O)N[C@@H](CO)C(=O)N[C@H](C(=O)N[C@@H](CCC(=O)O)C(=O)N[C@@H](CC(C)C)C(=O)N[C@H](C(=O)N[C@@H](CO)C(=O)N[C@@H](CO)C(=O)N[C@@H](CC(C)C)C(=O)N[C@@H](Cc1ccccc1)C(=O)N[C@@H](CCCNC(=N)N)C(=O)O)[C@@H](C)O)C(C)C` [CT-HC-1, Pal-ε-KYKKRLSVELTSSLFR] (H-K(Palmitoyl)YKKRLSVELTSSLFR-OH; N-terminus and C-terminus assumed), the 4T1 cells TGI (total growth inhibition) in the assay on 4T1 cells is over 5000 nM. In [1], the “cell number as compared to untreated cells” value is recorded as “decreased cell numbers in a concentration dependent manner”. For the same compound, the “BIO-induced transcription (TOPflash reporter)” value in [2] (BIO 500 nM) is “completely blocked”. Further, the “Wnt3aCM-induced transcription (TOPflash reporter)” value in [2] (Wnt3a conditioned medium 50%) is given as “completely blocked”. Also, the 50% growth inhibitory concentration (GI50) (usually the concentration giving 50% growth inhibition) was 1400 ± 50 nM in the assay on HT-29 cells; 630 ± 25 nM with HeLa cells; 600 ± 40 nM with U3A cells; 1300 ± 50 nM in the assay on RKO cells; 3400 ± 250 nM with HCT-116 cells. The “time of treatment within which β-catenin was degraded” value in the assay on β-catenin is at most 3 h. Besides, the “β-catenin levels 24 hours after treatment” value in the assay with β-catenin (24 hours) is given as “had not recovered”. The “β-catenin levels in presence of proteasomal inhibitor MG132” value in the assay on β-catenin (with MG132) is “stabilized”. For the same compound, the “levels of epithelial markers Lim-1 and E-cadherin” value in assay [3] (BIO-induced MM cells) is reported as “unaltered”. The Axin-2 expression result in assay [3] (setting [7]) is reported as “decrease”. Moreover, the “expression of Lim-1 and E-cadherin” value in assay [3] (setting [7]) was “enhanced expression”. In addition, in assay [4], the cell viability result is “decreased viability”. In assay [5], the tubule formation result is on record as “unaffected”. Also, in the assay on SW480 cells, the “SW480 cells TGI (total growth inhibition)” value came out at 5.

`CCCCCCCCCCCCCCCC(=O)N[C@@H](C(=O)N[C@H](CCCNC(=N)N)C(=O)N[C@H](Cc1ccccc1)C(=O)N[C@H](CC(C)C)C(=O)N[C@H](CO)C(=O)N[C@H](CO)C(=O)N[C@@H](C(=O)N[C@H](CC(C)C)C(=O)N[C@H](CCC(=O)O)C(=O)N[C@@H](C(=O)N[C@H](CO)C(=O)N[C@H](CC(C)C)C(=O)N[C@H](CCCNC(=N)N)C(=O)N[C@H](CCCCN)C(=O)N[C@H](CCCCN)C(N)=O)C(C)C)[C@H](C)O)[C@H](C)O` [CT-HC-5, Pal-TRFLSSTLEVSLRKK-NH2] (Palmitoyl-[dT][dR][dF][dL][dS][dS][dT][dL][dE][dV][dS][dL][dR][dK][dK]-NH2) yielded a 4T1 cells TGI (total growth inhibition) in the assay on 4T1 cells of over 5000 nM. On GFP-tagged beta-catenin, the Kd – broadly, a measure of binding affinity in units of concentration – came out at 2700 ± 200 nM. Further, the “colony formation by 4T1 cells” value in assay [6] was “inhibited colony formation”. In addition, the GI50 with HT-29 cells came out at 2000 ± 100 nM; in the assay with HeLa cells, 1200 ± 90 nM; in the assay with U3A cells it was 1500 ± 100 nM; in the assay on RKO cells, 1150 ± 50 nM; in the assay on HCT-116 cells, 2400 ± 400 nM. Further, in [4], the cell viability entry is “suppression of cell viability”. Also, the “SW480 cells TGI (total growth inhibition)” value in the assay on SW480 cells came to 2.5.
